From the supplement of paper PMC11061612

Columns and labels:
[1] = tested on: OACM5-1 (Esophageal Adenocarcinoma); assay: Bliss excess, mean over the matrix (fraction); higher = more synergy
Method in brief: (§1)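 Cell lines grown in DMEM/F12 or RPMI with 10% FBS were plated in 1536-well plates and held 24 hours at 37°C, 5% CO2 before 72 hours of exposure to two-drug dose matrices, with DMSO typically at 0.2%. CellTiter-Glo 2.0 luminescence gave viability, which was converted to inhibition. Vehicle wells were set to 0 and blank wells to 1. Combination Emax is the second-highest inhibition in the matrix, and Bliss excess is the observed combination effect minus the expected EA + EB − EA·EB, where EA and EB are the single-agent effects.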

[2] = tested on: DU-145 (Prostate Carcinoma); assay: as above
Method in brief: as §1

[3] = tested on: LC-1-sq (Squamous Cell Lung Carcinoma); assay: combination Emax (second highest fraction inhibited in the dose matrix, 72 h); higher = more inhibition; extreme values may be limits of the assay
Method in brief: as §1

[4] = tested on: EW-1 (Ewing's Sarcoma); assay: as above
Method in brief: as §1

[5] = tested on: Hey (Ovarian Carcinoma); assay: as above
Method in brief: as §1

[6] = tested on: ML-2 (Acute Myeloid Leukemia); assay: as above
Method in brief: as §1

[7] = tested on: MV-4-11 (Acute Myeloid Leukemia); assay: as above
Method in brief: as §1

[8] = tested on: NCI-H1092 (Small Cell Lung Carcinoma); assay: as above
Method in brief: as §1

[9] = tested on: HCC2998 (Colorectal Carcinoma); assay: as above
Method in brief: as §1

[10] = tested on: NCI-H2122 (Lung Adenocarcinoma); assay: as above
Method in brief: as §1

[11] = tested on: EFO-21 (Ovarian Carcinoma); assay: as above
Method in brief: as §1

[12] = tested on: NCI-H1993 (Lung Adenocarcinoma); assay: as above
Method in brief: as §1

[13] = tested on: ME-180 (Cervical Carcinoma); assay: as above
Method in brief: as §1

[14] = tested on: HCC1937 (Breast Carcinoma); assay: as above
Method in brief: as §1

[15] = tested on: HCC1500 (Breast Carcinoma); assay: as above
Method in brief: as §1

[16] = tested on: SW872 (Other Solid Carcinomas); assay: as above
Method in brief: as §1

[17] = tested on: SK-N-AS (Neuroblastoma); assay: as above
Method in brief: as §1

[18] = tested on: EJM (Plasma Cell Myeloma); assay: as above
Method in brief: as §1

[19] = tested on: SW982 (Other Solid Carcinomas); assay: as above
Method in brief: as §1

[20] = tested on: G-401 (Other Solid Carcinomas); assay: as above
Method in brief: as §1
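Throughout, for Bliss excess, mean over the matrix: after 72 h of two-drug dosing.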

| Compound | Bliss excess [1] | Bliss excess [2] | combination Emax [3] | combination Emax [4] | combination Emax [5] | combination Emax [6] | combination Emax [7] | combination Emax [8] | combination Emax [9] | combination Emax [10] | combination Emax [11] | combination Emax [12] | combination Emax [13] | combination Emax [14] | combination Emax [15] | combination Emax [16] | combination Emax [17] | combination Emax [18] | combination Emax [19] | combination Emax [20] |
| --- | --- | --- | --- | --- | --- | --- | --- | --- | --- | --- | --- | --- | --- | --- | --- | --- | --- | --- | --- | --- |
| CN(C)CCCOc1ccc(-c2ccc3ncc4c(c3c2)n(C2CCOCC2)c(=O)n4C)cn1 [AZD0156] + C=CCn1c(=O)c2cnc(Nc3ccc(N4CCN(C)CC4)cc3)nc2n1-c1cccc(C(C)(C)O)n1 [AZD1775] (first compound max 1 µM, partner max 1 µM) | -0.051 | -0.0236 | 0.91 | 0.886 | 0.495 | 1 | 0.924 | 0.301 | 0.633 | 0.793 | 0.472 | 0.586 | 0.423 | 0.475 | 0.283 | 0.267 | 0.77 | 0.858 | 0.71 | 0.646 |
| CN(C)CCCOc1ccc(-c2ccc3ncc4c(c3c2)n(C2CCOCC2)c(=O)n4C)cn1 [AZD0156] + CCN(CCO)CCCOc1ccc2c(Nc3cc(CC(=O)Nc4cccc(F)c4)[nH]n3)ncnc2c1 [AZD2811] (first compound max 1 µM, 7x7, partner max 1 µM) | -0.0366 | -0.0263 | 0.257 | 0.301 | 0.229 | 0.878 | 0.93 | 0.181 | 0.183 | 0.358 | 0.116 | 0.288 | 0.192 | 0.159 | 0.298 | 0.0742 | 0.183 | 0.0982 | 0.548 | 0.309 |
| CN(C)CCCOc1ccc(-c2ccc3ncc4c(c3c2)n(C2CCOCC2)c(=O)n4C)cn1 [AZD0156] + C[C@@H]1COCCN1C2=NC(=NC(=C2)C3(CC3)[S@](=N)(=O)C)C4=C5C=CNC5=NC=C4 [AZD6738] (first compound max 1 µM, 7x7, partner max 10 µM) | -0.0282 | -0.0233 | 0.877 | 0.93 | 0.84 | 0.967 | 0.992 | 0.174 | 0.831 | 0.945 | 0.549 | 0.616 | 0.343 | 0.543 | 0.298 | 0.552 | 0.805 | 0.894 | 0.723 | 0.493 |
| CN(C)CCCOc1ccc(-c2ccc3ncc4c(c3c2)n(C2CCOCC2)c(=O)n4C)cn1 [AZD0156] + O=C(c1cc(Cc2n[nH]c(=O)c3ccccc23)ccc1F)N1CCN(C(=O)C2CC2)CC1 [Olaparib] (first compound max 3 µM, partner max 3 µM) | -0.0162 | -0.0462 | 0.184 | 0.684 | 0.408 | 0.478 |  | 0.304 | 0.257 | 0.355 | 0.252 | 0.498 | 0.348 | 0.228 | 0.403 | 0.272 | 0.169 | 0.341 | 0.4 | 0.3 |
| C=CCn1c(=O)c2cnc(Nc3ccc(N4CCN(C)CC4)cc3)nc2n1-c1cccc(C(C)(C)O)n1 [AZD1775] + C1CN(CCC1(C(=O)N[C@@H](CCO)C2=CC=C(C=C2)Cl)N)C3=NC=NC4=C3C=CN4 [Capivasertib] (first compound max 3 µM, partner max 3 µM) | -0.0553 | -0.055 | 0.761 | 0.963 | 0.726 | 0.994 |  | 0.533 | 0.831 | 0.931 | 0.515 | 0.701 | 0.898 | 0.873 | 0.413 |  | 0.766 | 0.923 | 0.674 | 0.646 |
| C=CCn1c(=O)c2cnc(Nc3ccc(N4CCN(C)CC4)cc3)nc2n1-c1cccc(C(C)(C)O)n1 [AZD1775] + C[C@@H]1COCCN1C2=NC(=NC(=C2)C3(CC3)[S@](=N)(=O)C)C4=C5C=CNC5=NC=C4 [AZD6738] (first compound max 1 µM, partner max 10 µM) | 0.0994 | 0.02 | 0.938 | 0.935 | 0.809 | 1 | 0.991 | 0.397 | 0.938 | 0.961 | 0.543 | 0.689 | 0.802 | 0.68 | 0.382 | 0.83 |  | 0.904 | 0.807 | 0.793 |
| C=CCn1c(=O)c2cnc(Nc3ccc(N4CCN(C)CC4)cc3)nc2n1-c1cccc(C(C)(C)O)n1 [AZD1775] + O=C(c1cc(Cc2n[nH]c(=O)c3ccccc23)ccc1F)N1CCN(C(=O)C2CC2)CC1 [Olaparib] (first compound max 1 µM, partner max 10 µM) | -0.0363 | -0.073 | 0.901 | 0.907 | 0.552 | 1 | 0.978 | 0.382 | 0.448 | 0.834 | 0.308 | 0.604 | 0.457 | 0.497 | 0.227 | 0.336 | 0.78 | 0.891 | 0.787 | 0.769 |
| CCN(CCO)CCCOc1ccc2c(Nc3cc(CC(=O)Nc4cccc(F)c4)[nH]n3)ncnc2c1 [AZD2811] + C=CCn1c(=O)c2cnc(Nc3ccc(N4CCN(C)CC4)cc3)nc2n1-c1cccc(C(C)(C)O)n1 [AZD1775] (first compound max 1 µM, partner max 1 µM) | 0.0426 | -0.0116 | 0.864 | 0.827 | 0.497 | 1 | 0.936 | 0.259 | 0.599 | 0.897 | 0.472 | 0.458 | 0.396 | 0.471 | 0.227 | 0.289 | 0.728 | 0.875 | 0.742 | 0.566 |
| CCN(CCO)CCCOc1ccc2c(Nc3cc(CC(=O)Nc4cccc(F)c4)[nH]n3)ncnc2c1 [AZD2811] + C[C@@H]1COCCN1C2=NC(=NC(=C2)C3(CC3)[S@](=N)(=O)C)C4=C5C=CNC5=NC=C4 [AZD6738] (first compound max 1 µM, 7x7, partner max 10 µM) | -0.0628 | -0.0535 | 0.823 | 0.852 | 0.711 | 0.985 | 0.998 | 0.236 | 0.777 | 0.902 | 0.45 | 0.513 | 0.43 | 0.47 | 0.312 | 0.571 | 0.784 | 0.858 | 0.71 | 0.536 |
| CCN(CCO)CCCOc1ccc2c(Nc3cc(CC(=O)Nc4cccc(F)c4)[nH]n3)ncnc2c1 [AZD2811] + O=C(c1cc(Cc2n[nH]c(=O)c3ccccc23)ccc1F)N1CCN(C(=O)C2CC2)CC1 [Olaparib] (first compound max 1 µM, 7x7, partner max 10 µM) | 0.0082 | -0.0105 | 0.305 | 0.709 | 0.319 | 0.835 | 0.961 | 0.212 | 0.247 | 0.437 | 0.203 | 0.191 | 0.252 | 0.238 | 0.22 | 0.172 | 0.249 | 0.167 | 0.658 | 0.496 |
| CN(CCO)CC[C@H](CSc1ccccc1)Nc1ccc(S(=O)(=O)NC(=O)c2ccc(N3CCC([C@@H](O)c4ccccc4-c4ccc(Cl)cc4)CC3)cc2)cc1S(=O)(=O)C(F)(F)F [AZD4320] + C=CCn1c(=O)c2cnc(Nc3ccc(N4CCN(C)CC4)cc3)nc2n1-c1cccc(C(C)(C)O)n1 [AZD1775] (first compound max 1 µM, partner max 1 µM) | -0.01 | -0.0308 | 0.869 | 1 | 0.673 | 1 | 1 | 0.809 | 0.899 | 0.953 | 0.53 | 0.927 | 0.581 | 0.791 | 0.995 | 0.3 | 0.976 | 0.977 | 0.953 | 0.901 |
| Cc1c2c(nn1C)CSCc1cc(n(C)n1)CSc1cc(c3ccccc3c1)OCCCc1c(C(=O)O)n(C)c3c-2c(Cl)ccc13 [AZD5991] + Cc1cc2ncnn2cc1Nc1ncc2c(n1)n(C1CCOCC1)c(=O)n2C [AZD7648] (first compound max 1 µM, 7x7, partner max 10 µM) |  | -0.0307 | 0.269 | 0.421 | 0.316 | 1 | 1 | 0.583 | 0.899 | 0.597 | 0.32 | 0.492 | 0.338 | 0.362 | 0.465 | 0.258 | 0.59 | 0.971 | 0.371 | 0.616 |
| CS(=O)(=O)CCNCc1ccc(-c2ccc3ncnc(Nc4ccc(OCc5cccc(F)c5)c(Cl)c4)c3c2)o1 [Lapatinib] + NC1(c2ccc(-c3nc4ccn5c(=O)[nH]nc5c4cc3-c3ccccc3)cc2)CCC1 [MK-2206] (first compound max 10 µM, 7x7, partner max 10 µM) |  | -0.0235 |  |  |  | 0.785 | 0.961 | 0.791 |  |  | 0.321 | 0.68 | 0.758 | 0.841 | 0.901 | 0.247 | 0.16 |  | 0.894 |  |
| CCc1c2c(nc3ccc(O)cc13)-c1cc3c(c(=O)n1C2)COC(=O)[C@]3(O)CC [SN-38] + O=C(c1cc(Cc2n[nH]c(=O)c3ccccc23)ccc1F)N1CCN(C(=O)C2CC2)CC1 [Olaparib] (first compound max 0.3 µM, 7x7, partner max 10 µM) | 0.0474 | 0.0282 | 0.455 | 0.99 | 0.72 | 1 | 1 | 0.54 |  |  | 0.586 | 0.635 | 0.914 |  | 0.873 | 1 | 0.76 | 0.944 | 0.789 |  |
